Experiments:
giant foxtail = assay: Test B pre/postemergence giant foxtail; assay type: in vivo, Setaria faberii
In short: (§1)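 Response is a visual 0-to-10 score relative to untreated plants, where 0 means no effect and 10 means complete control, taken twelve to sixteen days after application. Treatments went onto soil at planting and onto foliage of 1- to 4-leaf plants, using a surfactant-containing non-phytotoxic solvent.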

bamyardgrass = assay: Test B flood test barnyardgrass; assay type: in vivo, Echinochloa crus-galli
In short: (§2)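 Plants were grown to the 2-leaf stage before treatment with test chemical, then held in a greenhouse for twelve to sixteen days. Injury was visually rated against untreated controls on a 0–10 scale, where 0 is no effect and 10 is complete control.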

wheat = assay: Test B pre/postemergence wheat; assay type: in vivo, Triticum aestivum
In short: as §1

morningglory = assay: Test B pre/postemergence morningglory; assay type: in vivo, Ipomoea hederacea
In short: as §1

pigweed = assay: Test B pre/postemergence pigweed; assay type: in vivo, Amaranthus retroflexus
In short: as §1

sugar beet = assay: Test B pre/postemergence sugar beet; assay type: in vivo, Beta vulgaris
In short: as §1

wild oat = assay: Test B pre/postemergence wild oat; assay type: in vivo, Avena fatua
In short: as §1

duck salad = assay: Test B flood test duck salad; assay type: in vivo, Heteranthera limosa
In short: as §2

surinam grass = assay: Test B pre/postemergence surinam grass; assay type: in vivo, Brachiaria decumbens
In short: as §1

soybean = assay: Test B pre/postemergence soybean; assay type: in vivo, Glycine max
In short: as §1

blackgrass = assay: Test B pre/postemergence blackgrass; assay type: in vivo, Alopecurus myosuroides
In short: as §1

smallflower flatsedge = assay: Test B flood test smallflower flatsedge; assay type: in vivo, Cyperus difformis
In short: as §2

cocklebur = assay: Test B pre/postemergence cocklebur; assay type: in vivo, Xanthium strumarium
In short: as §1

rape = assay: Test B pre/postemergence rape; assay type: in vivo, Brassica napus
In short: as §1

bedstraw = assay: Test B pre/postemergence bedstraw; assay type: in vivo, Galium aparine
In short: as §1

purple nutsedge = assay: Test B pre/postemergence purple nutsedge; assay type: in vivo, Cyperus rotundus
In short: as §1

[1] = Postemergence, Rate 62 g/ha, scale 0 to 10, 0 is no effect, 10 is complete control
[2] = Postemergence, Rate 250 g/ha, scale 0 to 10, 0 no effect, 10 complete control
[3] = Preemergence, Rate 62 g/ha, scale 0 to 10 (0 no effect, 10 complete control)
[4] = Preemergence, Rate 125 g/ha, scale 0 to 10 (0 no effect, 10 complete control)
[5] = Preemergence, Rate 250 g/ha, scale of 0 to 10 where 0 is no effect and 10 is complete control
[6] = Preemergence, Rate 500 g/ha, scale 0 (no effect) to 10 (complete control)
[7] = Rate 125 g/ha, Postemergence, scale 0 to 10, 0 no effect, 10 complete control
[8] = Rate 500 g/ha, Postemergence, scale 0 to 10, 0 no effect, 10 complete control
[9] = Rate 125 g/ha, Postemergence section (flood test species), scale 0 to 10, 0 no effect, 10 complete control
[10] = Rate 500 g/ha, listed under Postemergence (flood test species), scale 0 to 10, 0 no effect, 10 complete control
[11] = flood test, listed under Postemergence, Rate 250 g/ha, scale 0 to 10, 0 no effect, 10 complete control

Cc1cc(C)c(-n2c(=O)on(C(=O)N(c3ccc(F)cc3)C(C)C)c2=O)c(C)c1 [Compound 60]
1: Morningglory plant response rating (morningglory; [1])
0: Giant foxtail plant response rating (giant foxtail; [1]) | Giant foxtail plant response rating (giant foxtail; [2]) | Giant foxtail plant response rating (giant foxtail; [7]) | Giant foxtail plant response rating (giant foxtail; [8]) | Barnyardgrass plant response rating (bamyardgrass; [1]) | Barnyardgrass plant response rating (bamyardgrass; [9]) | Barnyardgrass plant response rating (bamyardgrass; [10]) | Barnyardgrass plant response rating (bamyardgrass; [11]) | Wheat plant response rating (wheat; [1]) | Wheat plant response rating (wheat; [2]) | Wheat plant response rating (wheat; [3]) | Plant response rating, Wheat (wheat; [4]) | Plant response rating, Wheat (wheat; [5]) | Wheat plant response rating (wheat; [6]) | Wheat plant response rating (wheat; [7]) | Wheat plant response rating (wheat; [8]) | Morningglory plant response rating (morningglory; [3]) | Plant response rating, Morningglory (morningglory; [4]) | Plant response rating, Morningglory (morningglory; [5]) | Morningglory plant response rating (morningglory; [6]) | Redroot pigweed plant response rating (pigweed; [3]) | Plant response rating, Redroot pigweed (pigweed; [4]) | Plant response rating, Redroot pigweed (pigweed; [5]) | Redroot pigweed plant response rating (pigweed; [6]) | Sugarbeets plant response rating (sugar beet; [1]) | Sugarbeets plant response rating (sugar beet; [2]) | Sugarbeets plant response rating (sugar beet; [3]) | Plant response rating, Sugarbeets (sugar beet; [4]) | Sugarbeets plant response rating (sugar beet; [7]) | Sugarbeets plant response rating (sugar beet; [8]) | Wild oats plant response rating (wild oat; [1]) | Wild oats plant response rating (wild oat; [2]) | Wild oats plant response rating (wild oat; [3]) | Plant response rating, Wild oats (wild oat; [4]) | Plant response rating, Wild oats (wild oat; [5]) | Wild oats plant response rating (wild oat; [6]) | Wild oats plant response rating (wild oat; [7]) | Wild oats plant response rating (wild oat; [8]) | Ducksalad plant response rating (duck salad; [1]) | Ducksalad plant response rating (duck salad; [9]) | Ducksalad plant response rating (duck salad; [10]) | Ducksalad plant response rating (duck salad; [11]) | B. signalgrass plant response rating (surinam grass; [1]) | B. signalgrass plant response rating (surinam grass; [2]) | B. signalgrass plant response rating (surinam grass; [3]) | Plant response rating, B. signalgrass (surinam grass; [4]) | Plant response rating, B. signalgrass (surinam grass; [5]) | B. signalgrass plant response rating (surinam grass; [6]) | B. signalgrass plant response rating (surinam grass; [7]) | B. signalgrass plant response rating (surinam grass; Rate 500 g/ha, Postemergence, scale of 0 to 10 where 0 is no effect and 10 is complete control) | Soybean plant response rating (soybean; [3]) | Plant response rating, Soybean (soybean; [4]) | Plant response rating, Soybean (soybean; [5]) | Soybean plant response rating (soybean; [6]) | Blackgrass plant response rating (blackgrass; [1]) | Blackgrass plant response rating (blackgrass; [2]) | Blackgrass plant response rating (blackgrass; [3]) | Plant response rating, Blackgrass (blackgrass; [4]) | Plant response rating, Blackgrass (blackgrass; [5]) | Blackgrass plant response rating (blackgrass; [6]) | Blackgrass plant response rating (blackgrass; [7]) | Blackgrass plant response rating (blackgrass; [8]) | S. Flatsedge plant response rating (smallflower flatsedge; [1]) | S. Flatsedge plant response rating (smallflower flatsedge; [9]) | S. Flatsedge plant response rating (smallflower flatsedge; [10]) | S. Flatsedge plant response rating (smallflower flatsedge; [11]) | Cocklebur plant response rating (cocklebur; [1]) | Cocklebur plant response rating (cocklebur; [2]) | Cocklebur plant response rating (cocklebur; [3]) | Plant response rating, Cocklebur (cocklebur; [4]) | Cocklebur plant response rating (cocklebur; [7]) | Cocklebur plant response rating (cocklebur; [8]) | Rape plant response rating (rape; [1]) | Rape plant response rating (rape; [2]) | Rape plant response rating (rape; [3]) | Plant response rating, Rape (rape; [4]) | Plant response rating, Rape (rape; [5]) | Rape plant response rating (rape; [6]) | Rape plant response rating (rape; [7]) | Bedstraw plant response rating (bedstraw; [3]) | Plant response rating, Bedstraw (bedstraw; [4]) | Plant response rating, Bedstraw (bedstraw; [5]) | Nutsedge plant response rating (purple nutsedge; [1]) | Nutsedge plant response rating (purple nutsedge; [2]) | Nutsedge plant response rating (purple nutsedge; [3]) | Plant response rating, Nutsedge (purple nutsedge; [4]) | Plant response rating, Nutsedge (purple nutsedge; [5]) | Nutsedge plant response rating (purple nutsedge; [6]) | Nutsedge plant response rating (purple nutsedge; [7]) | Nutsedge plant response rating (purple nutsedge; [8])
5: Giant foxtail plant response rating (giant foxtail; [6]) | Sugarbeets plant response rating (sugar beet; [6]) | Bedstraw plant response rating (bedstraw; [6])
3: Giant foxtail plant response rating (giant foxtail; [3]) | Plant response rating, Giant foxtail (giant foxtail; [4]) | Plant response rating, Sugarbeets (sugar beet; [5]) | Soybean plant response rating (soybean; [2]) | Soybean plant response rating (soybean; [7]) | Soybean plant response rating (soybean; [8])
2: Morningglory plant response rating (morningglory; [2]) | Morningglory plant response rating (morningglory; [7]) | Morningglory plant response rating (morningglory; [8]) | Redroot pigweed plant response rating (pigweed; [1]) | Soybean plant response rating (soybean; [1])
6: Redroot pigweed plant response rating (pigweed; [8])
7: Bedstraw plant response rating (bedstraw; [2]) | Bedstraw plant response rating (bedstraw; [7]) | Bedstraw plant response rating (bedstraw; [8])
4: Plant response rating, Giant foxtail (giant foxtail; [5]) | Redroot pigweed plant response rating (pigweed; [2]) | Redroot pigweed plant response rating (pigweed; [7]) | Rape plant response rating (rape; [8])

Reference: patent US6737383B1, “Herbicidal oxadiazolidines” (priority 1999, dated 2004)
